Among the data in patent EP0269322B1, “Virginiamycin analogs” (Merck & Co., Inc., priority 1986, dated 1988) are MIC and IC50 values, retold here.

≈ marks a conversion by molar mass, not a printed value.

One assay deals with Micrococcus luteus. The experiment in a line: Antibiotic activity, filter paper disc agar diffusion MIC. The class given is cell-based. The conditions noted are these: filter paper discs on agar, 15 hours at 28°C. On the procedure:
The compounds of Formulae I, II, and IV and virginiamycin M₁ from Example 2 were assayed for antibiotic activity following a method described by Matsen and Barry, Manual of Clinical Microbiology, Lennette, Spaulding, and Truant, Eds., American Society for Microbiology, Washington, D.C., p. 418 (1974). The minimal inhibitory concentrations (MIC) were determined by applying serial dilutions of the compounds of Formulae I, III, and IV and virginiamycin M₁ to standard filter paper discs. The concent↑ation of the test compounds ↑anged f↑om […] to 3.0 µg per disc in 20 µl of diluent. The test organism, Micrococcus luteus, was innoculated on the surface of an agar based nutrient medium in petri plates and the discs placed on the surface of the medium. The nutrient media consisted of nutrient broth supplemented with 0.2% yeast extract and 1.5% agar. The innoculated plates were incubated for 15 hours at 28°C and the zones of inhibition determined. The MIC of each compound was determined by the method described in Matsen and Barry, supra.
(A growth-free zone around the sample is the usual read-out of agar diffusion tests.)

For the next assay, the target named is T1, Gastrin Receptor (Cavia porcellus, UniProt H0VZC5).
T1 construct: from tissue; host or cells: guinea pig gastric mucosal glands
T1 sequence (H0VZC5 1-426): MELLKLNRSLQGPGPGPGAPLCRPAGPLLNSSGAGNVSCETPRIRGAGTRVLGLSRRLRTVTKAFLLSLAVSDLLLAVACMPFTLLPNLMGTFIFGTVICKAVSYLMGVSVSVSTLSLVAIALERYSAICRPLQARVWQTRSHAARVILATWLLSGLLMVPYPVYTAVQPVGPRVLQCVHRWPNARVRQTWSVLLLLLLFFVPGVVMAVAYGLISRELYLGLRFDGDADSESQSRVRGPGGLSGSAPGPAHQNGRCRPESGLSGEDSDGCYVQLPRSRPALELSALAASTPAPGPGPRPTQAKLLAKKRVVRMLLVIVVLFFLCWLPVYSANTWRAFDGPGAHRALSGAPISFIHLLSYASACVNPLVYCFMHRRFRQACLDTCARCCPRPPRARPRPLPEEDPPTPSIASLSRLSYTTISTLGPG
The experiment in a line: Gastrin receptor binding in guinea pig gastric glands (125I-gastrin). As to conditions: ¹²⁵I-gastrin, 25°C for 30 minutes, read-out: IC₅₀. How it is done: Guinea pig gastric mucosal glands were prepared by the procedure of Praissman et al., J. Receptor Res. 3:647 (1983). Stomachs from male Hartley guinea pigs (250-400 g body weight) were washed thoroughly and minced with fine scissors in HEPES buffer consisting of the following: 130 mM NaCl, 12 mM NaHCO₃, 3 mM NaH₂PO₄, 3 mM […], 3 mM K₂HPO₄, 2 mM MgSO₄, 1 mM CaCl₂, 5 mM glucose and 4 mM L-glutamine, 25 mM HEPES at pH 7.4. The minced tissues were washed and incubated in a 37°C shaker bath for 40 minutes, with HEPES buffer containing 0.1% collagenase and 0.1% bovine serum albumin (BSA), and bubbled with 95% O₂ and 5% CO₂. The tissues were passed twice through a 5 ml glass syringe to liberate the gastric glands, and then filtered through 200 mesh nylon. The filtered glands were centrifuged at 270 ^x g for 5 minutes and washed twice by resuspension and centrifugation.
The washed guinea pig gastric glands were resuspended in 25 ml of HEPES buffer containing 0.25 mg/ml of bacitracin. For binding studies, 14.2 µl of 50% MeOH/H₂O (for total binding) or gastrin (1 µM final concentration, for nonspecific binding) or broth or test compound from Examples 2, 3 or 4 and 20 µl of ¹²⁵I-gastrin (New England Nuclear [NEN], 20,000 cpm 20 µl) were added to 220 µl of gastric glands in triplicate tubes which were aerated with 95% O₂ and 5% CO₂ and capped. The reaction mixtures, after incubation at 25°C for 30 minutes in a shaking water bath, were filtered under reduced pressure on glass GF/B filters (Whatman) and immediately washed with 3 ^x 4 ml of HEPES buffer containing 0.1% BSA fraction V. The radioactivity on the filters was measured using a Beckman 5500 gamma counter for ¹²⁵I-gastrin.

Turning to `CC1=C\C=C\C(=O)Cc2nc(co2)C(=O)N2CCC=C2C(=O)O[C@H](C(C)C)[C@H](C)/C=C/C(=O)NC\C=C\1` [Compound III], the minimal inhibitory concentration (MIC) – broadly, the lowest concentration that inhibits growth of the organism – against Micrococcus luteus stood at 250 µM (≈ 127 µg/mL). For the same compound, at Gastrin Receptor, the IC50 was 90 nM.

As to `CC1=C\C=C\[C@H](O)Cc2nc(co2)C(=O)N2CCC=C2C(=O)O[C@H](C(C)C)[C@H](C)/C=C/C(=O)NC\C=C\1` [Compound II], the IC50 on Gastrin Receptor worked out at 13 nM.

For `CC1=C\C=C\[C@@H](O)Cc2nc(co2)C(=O)N2CCC=C2C(=O)O[C@H](C(C)C)[C@H](C)/C=C/C(=O)NC\C=C\1` [Compound I], 90 µM (≈ 45.9 µg/mL) was the least that counted as inhibitory against Micrococcus luteus (MIC). Besides, the IC50 at Gastrin Receptor is 12 nM.

Compound `CC1=C\CCC(=O)Cc2nc(co2)C(=O)N2CCC=C2C(=O)O[C@H](C(C)C)[C@H](C)/C=C/C(=O)NC\C=C\1` [IV] had an MIC in the assay with Micrococcus luteus of 15 µM (≈ 7.64 µg/mL). Besides, the IC50 at Gastrin Receptor came out at 360 nM.

Regarding `CC1=C\[C@@H](O)CC(=O)Cc2nc(co2)C(=O)N2CCC=C2C(=O)O[C@H](C(C)C)[C@H](C)/C=C/C(=O)NC\C=C\1` [Virginiamycin M₁, reference compound], in the assay on Micrococcus luteus, the minimum inhibitory concentration (MIC) was determined as 1.5 µM (≈ 0.788 µg/mL). The IC50 on Gastrin Receptor stood at 710 nM.
